# Laboratory results as given in ChEMBL document CHEMBL4033618, “Covalently linked kanamycin - Ciprofloxacin hybrid antibiotics as a tool to fight bacterial resistance” (Bioorg Med Chem, 2017).
# Activity calls are given as the source filed them. The calls are words filed in the database; no cut-off is given here.
# Key:
# [1] = system: Escherichia coli; experiment: Antibacterial activity against Escherichia coli XL1 blue harboring pET9d encode for APH(3')-1a resistance enzyme by double microdilution method; format: functional
# [2] = system: Escherichia coli; experiment: Antibacterial activity against aminoglycosides-resistant Escherichia coli BL21 harboring pSF815 encode for bifunctional AAC(6')/APH(2\") resistance enzyme by double microdilution method; format: functional
# [3] = Inhibition of Escherichia coli topoisomerase 4 using supercoiled pBR322 DNA as substrate by agarose gel electrophorosis method
# [4] = system: Escherichia coli; experiment: Antibacterial activity against aminoglycosides-resistant Escherichia coli BL21 harboring pET11d encode for APH(3')-2b resistance enzyme by double microdilution method; format: functional
# [5] = system: Escherichia coli; experiment: Antibacterial activity against Escherichia coli XL1 blue by double microdilution method; format: functional
# [6] = system: Escherichia coli; experiment: Antibacterial activity against kanamycin-resistant Escherichia coli AG100B by double microdilution method; format: functional
# [7] = system: Bacillus spizizenii; experiment: Resistance index, ratio of MIC for Bacillus subtilis ATCC 6633 in 15th subculture to MIC for Bacillus subtilis ATCC 6633 in first subculture; format: functional
# [8] = Inhibition of Escherichia coli DNA gyrase using relaxed pBR322 DNA as substrate by agarose gel electrophorosis method
# [9] = system: Escherichia coli; experiment: Ratio of MIC for Escherichia coli XL1 blue harboring pET9d encode for APH(3')-1a resistance enzyme to MIC for Escherichia coli XL1 blue; format: functional
# [10] = system: Escherichia coli; experiment: Inhibition of protein translation in Escherichia coli S30 cell extract using circular DNA with pBESTluc after 60 mins; format: functional
# [11] = system: Escherichia coli; experiment: Ratio of MIC for aminoglycosides-resistant Escherichia coli BL21 harboring pETSACG1 encode for APH(3')-3a resistance enzyme to MIC for Escherichia coli BL21; format: functional
# [12] = system: Escherichia coli; experiment: Antibacterial activity against kanamycin-resistant Escherichia coli AG100A by double microdilution method; format: functional
# [13] = system: Escherichia coli; experiment: Ratio of MIC for aminoglycosides-resistant Escherichia coli BL21 harboring pET11d encode for APH(3')-2b resistance enzyme to MIC for Escherichia coli BL21; format: functional
# [14] = system: Escherichia coli; experiment: Resistance index, ratio of MIC for Escherichia coli ATCC 35218 in 15th subculture to MIC for Escherichia coli ATCC 35218 in first subculture; format: functional
# [15] = system: Escherichia coli; experiment: Ratio of MIC for aminoglycosides-resistant Escherichia coli BL21 harboring pSF815 encode for bifunctional AAC(6')/APH(2\") resistance enzyme to MIC for Escherichia coli BL21; format: functional
# [16] = system: Escherichia coli; experiment: Antibacterial activity against aminoglycosides-resistant Escherichia coli BL21 harboring pETSACG1 encode for APH(3')-3a resistance enzyme by double microdilution method; format: functional
# [17] = system: Bacillus subtilis; experiment: Antibacterial activity against aminoglycosides-susceptible Bacillus subtilis by double microdilution method; format: functional
# [18] = system: Escherichia coli; experiment: Antibacterial activity against Escherichia coli ATCC 35218 in 15th subculture in presence of equimolar concentration of ciprofloxacin by double microdilution method; format: functional
# [19] = system: Escherichia coli; experiment: Antibacterial activity against aminoglycosides-susceptible Escherichia coli R477-100 by double microdilution method; format: functional
# [20] = system: Escherichia coli; experiment: Antibacterial activity against Escherichia coli BL21 by double microdilution method; format: functional
# [21] = system: Bacillus spizizenii; experiment: Antibacterial activity against Bacillus subtilis ATCC 6633 in 15th subculture in presence of equimolar concentration of ciprofloxacin by double microdilution method; format: functional
# [22] = Acute toxicity in iv dosed mouse at pH 6.6 administered for 4 days; format: organism-based; details: in vivo
# [23] = system: Escherichia coli; experiment: Antibacterial activity against aminoglycosides-susceptible Escherichia coli 25922 by double microdilution method; format: functional; details: ATCC 25922
# [24] = system: Staphylococcus epidermidis; experiment: Antibacterial activity against aminoglycosides-susceptible Staphylococcus epidermidis by double microdilution method; format: functional
# [25] = system: Bacillus spizizenii; experiment: Antibacterial activity against Bacillus subtilis ATCC 6633 in 15th subculture in presence of equimolar concentration of kanamycin A by double microdilution method; format: functional
smiles,measurement,setting,value
NC[C@H]1O[C@H](O[C@H]2[C@H](O)[C@@H](O[C@H]3O[C@H](CO)[C@@H](O)[C@H](N)[C@H]3O)[C@H](N)C[C@@H]2N)[C@H](O)[C@@H](O)[C@@H]1O [KANAMYCIN],MIC,[1],> 384 µg/mL
same,MIC,[2],> 384 µg/mL
same,IC50,[3],Not Active
same,MIC,[4],> 384 µg/mL
same,MIC,[5],3 µg/mL
same,MIC,[6],384 µg/mL
same,Ratio,[7],15
same,IC50,[8],Not Active
same,Ratio,[9],>128
same,IC50,"[10]; Escherichia coli, 1 h, read-out: IC50",0.03 µM
same,Ratio,[11],>32
same,MIC,[12],96 µg/mL
same,Ratio,[13],>32
same,Ratio,[14],15
same,Ratio,[15],>32
same,MIC,[16],> 384 µg/mL
same,MIC,[17],1.5 µg/mL
same,Activity,[18],inactive
same,MIC,[19],12 µg/mL
same,MIC,[20],12 µg/mL
same,Activity,[21],Active
same,LD50 at 96 h,[22],280 mg/kg
same,MIC,[23],48 µg/mL
same,MIC,[24],1.5 µg/mL
O=C(O)c1cn(C2CC2)c2cc(N3CCNCC3)c(F)cc2c1=O [CIPROFLOXACIN],IC50,[3]; read-out: IC50,8.6 µM
same,IC50,[8]; read-out: IC50,1.3 µM
same,IC50,[10],Not Active
same,Activity,[25],Active
same,MIC,[12],< 0.005 µg/mL
same,MIC,[17],0.02 µg/mL
same,MIC,[24],0.094 µg/mL
